Experimental data taken from patent US20260207798A1, “CYCLIC PEPTIDES AS PET IMAGING AGENTS OF GRANZYME B” (priority 2022, published 2026).
Numbered stars: 1 amine (or outer) side, 2 acyl side, 3 side chain; on linkers, the order of the positions; unused ones are H or OH. Bridge positions count the residues as written; N and C are the ends. Square brackets hold non-standard residues; d marks the D form. Peptide text beside a SMILES is read from it. I, II: the chains in the order shown. CO(CH2)2(OCH2CH2)17CO = O=C(CCOCCOCCOCCOCCOCCOCCOCCOCCOCCOCCOCCOCCOCCOCCOCCOCCOCCC(=O)[*:2])[*:1]; Pro(cis-4-F) = O=C(O)[C@@H]1C[C@H](F)CN1; Aib = CC(C)(N)C(=O)O

target: human Granzyme B (hGranzyme B) (Homo sapiens, UniProt P10144); assay: Surface plasmon resonance (SPR) binding kinetics to hGranzyme B; conditions: 25° C., 1:1 binding model, KD=kd/ka; read-out: Granzyme B SPR Kd
Method: The kinetics of test peptide binding to human Granzyme B (hGranzyme B) was determined by SPR. All experiments were performed at 25° C. using the Biacore 8k+ instrument (Cytiva, Marlborough, MA). The Biacore 8k+ Insight Evaluation Software Version 3.0 was used to fit the data with a 1:1 binding model to determine the association rate constant ka (M^−1s^−1, where “M” ~equals molar and “s” ~equals seconds) and the dissociation rate constant kd (s^−1). These rate constants were used to calculate the equilibrium dissociation constant. KD (M)=kd/ka.
To measure the binding kinetics of peptides of interest, surfaces were prepared by a capture method to a Series S Streptavidin (SA) chip using a 1×HBS-EP+ running buffer (Cytiva). hGranzyme B was diluted to 10 μg/mL in IX HBS-EP+ and flowed over spot 2 of each flow cell on the chip at a flow rate of 10 ul/min for 20 s to achieve a level of capture of ~1100 RU. An unmodified spot 1 of each flow cell was used as a matrix binding control or reference surface. Binding kinetics were measured using single cycle kinetics at 25° C. by injecting 5 concentrations with 3-fold serial dilutions of test peptides from 0.01 μM to 1 μM. Compound dilutions were performed manually in a running buffer containing 1×HBS-EP+(Cytiva), and a final concentration of 2% DMSO. The interaction analyses over hGranzyme B, were performed using a 120 s association time and a 900 s dissociation time. All experiments were conducted at a flow rate of 50 μL/min with a data collection rate of 10 Hz.
Peptide dilution series included 2 zero concentration points (no compound) which were averaged and subtracted from the peptide concentration injection as DMSO control responses. Binding data acquired from the reference surface (matrix binding control) were subtracted from the binding data for hGranzyme B surface on the chip to determine specific binding. Next, the association phase data were solvent corrected to account for any signal fluctuation throughout the experiment due to subtle DMSO concentration differences. Corrected response data were analyzed using the Biacore 8k+ Evaluation Software Version 3.0 according to the manufacturer. SPR data for representative compounds of the disclosure are found in Table 8.

Kd [nM]	Structure (SMILES)
< 0.3	C[C@@H]1NC(=O)[C@H](CO)NC(=O)[C@H](CCC(N)=O)NC(=O)[C@H](CC(=O)O)NC(=O)[C@H](CCC(=O)O)NC(=O)[C@H](Cc2ccccc2)NC(=O)[C@H](CC(N)=O)NC(=O)[C@H](Cc2ccccc2)NC(=O)CSC[C@@H](C(=O)NCC(=O)NCC(=O)N[C@@H](CCCCNC(=O)CCOCCOCCOCCOCCOCCOCCOCCOCCOCCOCCOCCOCCOCCOCCOCCOCCOCCC(=O)NCCCC[C@H](NC(=O)CNC(=O)CNC(=O)[C@@H]2CSCC(=O)N[C@@H](Cc3ccccc3)C(=O)N[C@@H](CC(N)=O)C(=O)N[C@@H](Cc3ccccc3)C(=O)N[C@@H](CCC(=O)O)C(=O)N[C@@H](CC(=O)O)C(=O)N[C@@H](CCC(N)=O)C(=O)N[C@@H](CO)C(=O)N[C@@H](C)C(=O)N[C@@H](CC(=O)O)C(=O)N[C@@H]([C@@H](C)O)C(=O)N[C@@H](Cc3c[nH]c4ccccc34)C(=O)N[C@@H](CCC(N)=O)C(=O)N3CCC[C@H]3C(=O)N2)C(N)=O)C(N)=O)NC(=O)[C@@H]2CCCN2C(=O)[C@H](CCC(N)=O)NC(=O)[C@H](Cc2c[nH]c3ccccc23)NC(=O)[C@H]([C@@H](C)O)NC(=O)[C@H](CC(=O)O)NC1=O [Compound 18a, (*F.N.F.E.D.Q.S.A.D.T.W.Q.P.*C.G.G.K.NH2)-PEG17-(F.N.F.E.D.Q.S.A.D.T.W.Q.P.C.G.G.K.NH2)] (I: {CH2CO}-FNFEDQSADTWQPCGGK-NH2 / II: {CH2CO}-FNFEDQSADTWQPCGGK-NH2; linker I:17-II:17 via CO(CH2)2(OCH2CH2)17CO (inferred); thioether I:N-I:14, II:N-II:14 (inferred))
3.7	C[C@@H](O)[C@@H]1NC(=O)CNC(=O)C(C)(C)NC(=O)[C@H](CO)NC(=O)[C@H](CCC(N)=O)NC(=O)[C@H](CC(=O)O)NC(=O)[C@H](CCC(=O)O)NC(=O)[C@H](Cc2ccccc2)NC(=O)[C@H](CC(N)=O)NC(=O)[C@H](Cc2ccccc2)NC(=O)CSC[C@@H](C(=O)NCC(N)=O)NC(=O)[C@@H]2CCCN2C(=O)[C@H](CCC(N)=O)NC(=O)[C@H](Cc2c[nH]c3ccccc23)NC1=O [Compound 45a, *F.N.F.E.D.Q.S.Aib.G.T.W.Q.P.*C.G.NH2] ({CH2CO}-FNFEDQS[Aib]GTWQPCG-NH2; thioether N-14)
4.2	C[C@@H](O)[C@@H]1NC(=O)[C@H](CC(=O)O)NC(=O)[C@@H]2CCCN2C(=O)[C@H](CO)NC(=O)[C@H](CCC(N)=O)NC(=O)[C@H](CC(=O)O)NC(=O)[C@H](CCC(=O)O)NC(=O)[C@H](Cc2ccccc2)NC(=O)[C@H](CC(N)=O)NC(=O)[C@H](Cc2ccccc2)NC(=O)CSC[C@@H](C(=O)NCC(N)=O)NC(=O)[C@@H]2C[C@H](F)CN2C(=O)[C@H](CCC(N)=O)NC(=O)[C@H](Cc2c[nH]c3ccccc23)NC1=O [Compound 48a, *F.N.F.E.D.Q.S.P.D.T.W.Q.Proc4F.*C.G.NH2] ({CH2CO}-FNFEDQSPDTWQ[Pro(cis-4-F)]CG-NH2; thioether N-14)
4.8	C[C@@H](O)[C@@H]1NC(=O)[C@H](CC(=O)O)NC(=O)[C@@H]2CCCN2C(=O)[C@H](CO)NC(=O)[C@H](CCC(N)=O)NC(=O)[C@H](CC(=O)O)NC(=O)[C@H](CCC(=O)O)NC(=O)[C@H](Cc2ccccc2)NC(=O)[C@H](CC(N)=O)NC(=O)[C@H](Cc2ccccc2)NC(=O)CSC[C@@H](C(=O)NCC(=O)NCC(=O)N[C@@H](CCCCN)C(N)=O)NC(=O)[C@@H]2CCCN2C(=O)[C@H](CCC(N)=O)NC(=O)[C@H](Cc2c[nH]c3ccccc23)NC1=O [Compound 51a, *F.N.F.E.D.Q.S.P.D.T.W.Q.P.*C.G.G.K.NH2] ({CH2CO}-FNFEDQSPDTWQPCGGK-NH2; thioether N-14)
4.8	CC(C)C[C@@H]1NC(=O)[C@@H]2CCCN2C(=O)[C@H](CO)NC(=O)[C@H](CCC(N)=O)NC(=O)[C@H](CC(=O)O)NC(=O)[C@H](CCC(=O)O)NC(=O)[C@H](Cc2ccccc2)NC(=O)[C@H](CC(N)=O)NC(=O)[C@H](Cc2ccccc2)NC(=O)CSC[C@@H](C(=O)NCC(N)=O)NC(=O)[C@@H]2CCCN2C(=O)[C@H](CCC(N)=O)NC(=O)[C@H](Cc2c[nH]c3ccccc23)NC(=O)[C@H]([C@@H](C)O)NC1=O [Compound 52a, *F.N.F.E.D.Q.S.P.L.T.W.Q.P.*C.G.NH2] ({CH2CO}-FNFEDQSPLTWQPCG-NH2; thioether N-14)
